Results reported in ChEMBL document CHEMBL3526086, “Identification of the oxidative and conjugative enzymes involved in the biotransformation of brivanib” (Drug Metab Dispos, 2012).

Key:
Liver cytosol [1] = test: Drug level in human liver cytosol treated with 2 uM [14C]brivanib alaninate for 2 hrs by LC/MS analysis in presence of PAPS; assay type: ADME, tissue-based
Sulfotransferase 1B1 = Sulfotransferase 1B1 (Homo sapiens, UniProt O43704); test: Activity of human SULT1B1 assessed as compound formation treated with 2 and 20 uM brivanib for 30 mins by LC/MS analysis in presence of PAPS; assay type: ADME; conditions: 0.5 h
Sulfotransferase 2A1 = Sulfotransferase 2A1 (Homo sapiens, UniProt Q06520); test: Activity of human SULT2A1 assessed as compound formation treated with 2 and 20 uM brivanib for 30 mins by LC/MS analysis in presence of PAPS; assay type: ADME; conditions: 0.5 h
Sulfotransferase 1A1 = Sulfotransferase 1A1 (Homo sapiens, UniProt P50225); test: Activity of human SULT1A1 assessed as compound formation treated with 2 and 20 uM brivanib for 30 mins by LC/MS analysis in presence of PAPS; assay type: ADME; conditions: 0.5 h
Sulfotransferase 1A3 = Sulfotransferase 1A3 (Homo sapiens, UniProt P0DMM9); test: Activity of human SULT1A3 assessed as compound formation treated with 2 and 20 uM brivanib for 30 mins by LC/MS analysis in presence of PAPS; assay type: ADME; conditions: 0.5 h
Sulfotransferase 1E1 = Sulfotransferase 1E1 (Homo sapiens, UniProt P49888); test: Activity of human SULT1E1 assessed as compound formation treated with 2 and 20 uM brivanib for 30 mins by LC/MS analysis in presence of PAPS; assay type: ADME; conditions: 0.5 h
Liver microsome [2] = test: Drug metabolism in human liver microsomes assessed as (R)-4-fluoro-5-(6-(2-hydroxypropoxy)-5-methylpyrrolo[1,2-f][1,2,4]triazin-4-yloxy)-1H-indole-2-carboxylic acid formation at 2 uM for 60 mins by LC/MS analysis; assay type: ADME
Liver cytosol [3] = test: Drug metabolism in human liver cytosol assessed as (R)-1-(4-(4-fluoro-2-(hydroxymethyl)-1H-indol-5-yloxy)-5-methylpyrrolo[1,2-f][1,2,4]triazin-6-yloxy)propane-2-sulfonic acid formation at 2 uM for 60 mins by LC/MS analysis in presence of PAPS; assay type: ADME
Liver cytosol [4] = test: Drug metabolism in human liver cytosol assessed as (R)-4-fluoro-5-(6-(2-hydroxypropoxy)-5-methylpyrrolo[1,2-f][1,2,4]triazin-4-yloxy)-1H-indole-2-carboxylic acid formation at 2 uM for 60 mins by LC/MS analysis; assay type: ADME, tissue-based
Liver microsome [5] = test: Drug metabolism in human liver microsomes assessed as (R)-4-fluoro-5-(6-(2-hydroxypropoxy)-5-methylpyrrolo[1,2-f][1,2,4]triazin-4-yloxy)-1H-indole-2-carboxylic acid formation at 2 uM for 60 mins by LC/MS analysis in presence of NADPH; assay type: ADME
Liver cytosol [6] = test: Drug metabolism in human liver cytosol assessed as (R)-4-fluoro-5-(5-methyl-6-(2-sulfopropoxy)pyrrolo[1,2-f][1,2,4]triazin-4-yloxy)-1H-indole-2-carboxylic acid formation at 2 uM for 60 mins by LC/MS analysis in presence of PAPS; assay type: ADME
Liver cytosol [7] = test: Drug metabolism in human liver cytosol assessed as sulfate conjugate formation at 2 uM for 60 mins in absence of PAPS by LC/MS analysis; assay type: ADME, tissue-based; conditions: 1 h
Liver cytosol [8] = test: Drug metabolism in human liver cytosol assessed as (R)-4-fluoro-5-(6-(2-hydroxypropoxy)-5-methylpyrrolo[1,2-f][1,2,4]triazin-4-yloxy)-1H-indole-2-carboxylic acid formation at 2 uM for 60 mins by LC/MS analysis in presence of NADPH; assay type: ADME
Liver microsome [9] = test: Drug metabolism in human liver microsomes assessed as brivanib formation at 2 uM for 60 mins by LC/MS analysis; assay type: ADME; conditions: 1 h
Liver microsome [10] = test: Drug metabolism in human liver microsomes assessed as 1-(4-(4-fluoro-2-methyl-1H-indol-5-yloxy)-5-methylpyrrolo[1,2-f][1,2,4]triazin-6-yloxy)propan-2-one formation at 2 uM for 60 mins by LC/MS analysis in presence of NADPH; assay type: ADME
Liver cytosol [11] = test: Drug metabolism in human liver cytosol assessed as (R)-1-(4-(4-fluoro-2-methyl-1H-indol-5-yloxy)-5-methylpyrrolo[1,2-f][1,2,4]triazin-6-yloxy)propane-2-sulfonic acid formation at 2 uM for 2 hrs by LC/MS analysis in presence of PAPS; assay type: ADME
Liver microsome [12] = test: Drug metabolism in human liver microsomes assessed as brivanib formation at 2 uM for 60 mins by LC/MS analysis in presence of NADPH; assay type: ADME; conditions: 1 h
Liver microsome [13] = test: Drug metabolism in human liver microsomes assessed as 1-(4-(4-fluoro-2-methyl-1H-indol-5-yloxy)-5-methylpyrrolo[1,2-f][1,2,4]triazin-6-yloxy)propan-2-one formation at 2 uM for 60 mins by LC/MS analysis; assay type: ADME
Liver microsome [14] = test: Drug metabolism in human liver microsomes assessed as (R)-1-(4-(4-fluoro-2-(hydroxymethyl)-1H-indol-5-yloxy)-5-methylpyrrolo[1,2-f][1,2,4]triazin-6-yloxy)propan-2-ol formation at 2 uM for 60 mins by LC/MS analysis in presence of NADPH; assay type: ADME
Liver microsome [15] = test: Drug metabolism in human liver microsomes assessed as (R)-1-(4-(4-fluoro-2-(hydroxymethyl)-1H-indol-5-yloxy)-5-methylpyrrolo[1,2-f][1,2,4]triazin-6-yloxy)propan-2-ol formation at 2 uM for 60 mins by LC/MS analysis; assay type: ADME

Sulfotransferase 1A3, sequence (P0DMM9 whole entry): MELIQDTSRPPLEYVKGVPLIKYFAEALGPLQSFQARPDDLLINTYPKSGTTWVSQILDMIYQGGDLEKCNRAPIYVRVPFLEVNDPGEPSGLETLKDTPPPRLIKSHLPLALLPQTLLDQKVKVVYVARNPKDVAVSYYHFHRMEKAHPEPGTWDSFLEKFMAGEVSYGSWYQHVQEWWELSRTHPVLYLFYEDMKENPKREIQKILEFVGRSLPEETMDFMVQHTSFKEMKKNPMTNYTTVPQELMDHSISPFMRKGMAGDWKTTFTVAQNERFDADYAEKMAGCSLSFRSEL
Sulfotransferase 1B1, sequence (O43704 whole entry): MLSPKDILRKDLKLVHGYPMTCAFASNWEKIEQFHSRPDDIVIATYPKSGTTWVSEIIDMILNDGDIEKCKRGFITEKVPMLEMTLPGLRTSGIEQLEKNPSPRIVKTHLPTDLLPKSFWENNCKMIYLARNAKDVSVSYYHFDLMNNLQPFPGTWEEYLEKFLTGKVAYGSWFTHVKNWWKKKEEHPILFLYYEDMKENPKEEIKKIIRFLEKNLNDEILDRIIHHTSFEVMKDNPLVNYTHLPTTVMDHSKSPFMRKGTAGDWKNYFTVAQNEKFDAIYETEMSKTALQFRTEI
Sulfotransferase 2A1, sequence (Q06520 whole entry): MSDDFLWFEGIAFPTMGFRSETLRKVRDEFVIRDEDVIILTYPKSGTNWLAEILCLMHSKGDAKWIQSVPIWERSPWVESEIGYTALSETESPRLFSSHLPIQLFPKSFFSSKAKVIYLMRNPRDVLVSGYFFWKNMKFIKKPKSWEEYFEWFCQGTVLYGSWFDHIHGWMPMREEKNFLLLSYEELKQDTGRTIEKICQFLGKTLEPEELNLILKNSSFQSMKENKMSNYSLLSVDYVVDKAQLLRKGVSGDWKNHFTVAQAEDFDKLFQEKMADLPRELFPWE
Sulfotransferase 1A1, sequence (P50225 whole entry): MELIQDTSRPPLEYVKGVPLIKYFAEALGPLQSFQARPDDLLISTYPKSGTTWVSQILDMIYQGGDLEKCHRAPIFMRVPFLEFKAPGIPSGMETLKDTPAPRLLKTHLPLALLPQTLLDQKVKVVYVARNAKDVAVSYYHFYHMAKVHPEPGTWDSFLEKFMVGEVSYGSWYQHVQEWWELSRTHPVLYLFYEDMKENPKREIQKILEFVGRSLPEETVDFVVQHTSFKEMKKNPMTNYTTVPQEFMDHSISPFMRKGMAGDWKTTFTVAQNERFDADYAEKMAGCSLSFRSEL
Sulfotransferase 1E1, sequence (P49888 whole entry): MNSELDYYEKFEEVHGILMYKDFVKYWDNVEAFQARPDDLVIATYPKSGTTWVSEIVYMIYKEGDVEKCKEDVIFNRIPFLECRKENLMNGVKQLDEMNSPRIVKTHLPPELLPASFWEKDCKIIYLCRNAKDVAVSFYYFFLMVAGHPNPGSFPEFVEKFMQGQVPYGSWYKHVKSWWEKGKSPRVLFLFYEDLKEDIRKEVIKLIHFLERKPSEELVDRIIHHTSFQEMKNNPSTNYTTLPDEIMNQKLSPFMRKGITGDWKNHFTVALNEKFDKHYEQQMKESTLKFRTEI

Drug metabolism (Liver cytosol [1])	Drug metabolism (Sulfotransferase 1B1)	Drug metabolism (Sulfotransferase 2A1)	Drug metabolism (Sulfotransferase 1A1)	Drug metabolism (Sulfotransferase 1A3)	Drug metabolism (Sulfotransferase 1E1)	Drug metabolism (Liver microsome [2])	Drug metabolism (Liver cytosol [3])	Drug metabolism (Liver cytosol [4])	Drug metabolism (Liver microsome [5])	Drug metabolism (Liver cytosol [6])	Drug metabolism (Liver cytosol [7])	Drug metabolism (Liver cytosol [8])	Drug metabolism (Liver microsome [9])	Drug metabolism (Liver microsome [10])	Drug metabolism (Liver cytosol [11])	Drug metabolism (Liver microsome [12])	Drug metabolism (Liver microsome [13])	Drug metabolism (Liver microsome [14])	Drug metabolism (Liver microsome [15])	SMILES
metabolite_detected	metabolite_detected	metabolite_detected	metabolite_detected	metabolite_detected	metabolite_detected															Cc1cc2c(F)c(Oc3ncnn4cc(OC[C@@H](C)OS(=O)(=O)O)c(C)c34)ccc2[nH]1
						metabolite_not_detected	metabolite_detected	metabolite_detected	metabolite_detected	metabolite_detected	metabolite_not_detected	metabolite_detected								Cc1c(OC[C@@H](C)O)cn2n[14cH]nc(Oc3ccc4[nH]c(CO)cc4c3F)c12
						metabolite_not_detected			metabolite_detected				metabolite_detected	metabolite_detected	metabolite_detected	metabolite_detected	metabolite_not_detected	metabolite_detected	metabolite_not_detected	Cc1cc2c(F)c(Oc3n[14cH]nn4cc(OC[C@@H](C)OC(=O)[C@H](C)N)c(C)c34)ccc2[nH]1
